Results from patent US20090023721A1, “Novel Substituted Tetracyclic Tetrahydrofuran, Pyrrolidine and Tetrahydrothiophene Derivatives and Their Use as a Medicament” (priority 2005, published 2009).
Read-outs that look alike come from different tables or passages of the source.

Experiments:
[1] = target: T1, human Dopamine D2L receptor (Homo sapiens, UniProt P14416); experiment: In vitro binding affinity for human D2L receptor ([3H]Spiperone); conditions: human D2L receptor-transfected CHO cell membranes, [3H]Spiperone; read-out: h-D2L (converted)
T1 construct: expressed in transfected cells; host or cells: CHO cells (frozen membranes)
T1 sequence (P14416 whole entry): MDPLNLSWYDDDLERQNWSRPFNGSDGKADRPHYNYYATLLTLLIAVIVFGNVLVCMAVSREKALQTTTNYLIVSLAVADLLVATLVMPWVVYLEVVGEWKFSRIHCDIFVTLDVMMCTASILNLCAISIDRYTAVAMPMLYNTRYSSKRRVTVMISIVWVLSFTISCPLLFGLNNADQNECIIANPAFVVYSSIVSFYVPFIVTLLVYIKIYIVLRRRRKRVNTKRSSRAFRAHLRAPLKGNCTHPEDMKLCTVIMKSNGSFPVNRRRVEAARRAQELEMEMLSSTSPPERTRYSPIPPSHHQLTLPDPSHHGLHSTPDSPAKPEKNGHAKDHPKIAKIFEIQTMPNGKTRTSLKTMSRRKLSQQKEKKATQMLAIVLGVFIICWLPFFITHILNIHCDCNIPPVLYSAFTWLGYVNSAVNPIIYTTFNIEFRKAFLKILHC
Protocol: Frozen membranes of human Dopamine D2L receptor-transfected CHO cells were thawed, briefly homogenised using an Ultra-Turrax T25 homogeniser and diluted in Tris-HCl assay buffer containing NaCl, CaCl2, MgCl2, KCl (50, 120, 2, 1, and 5 mM respectively, adjusted to pH 7.7 with HCl) to an appropriate protein concentration optimised for specific and non-specific binding. Radioligand [^3H]Spiperone (NEN, specific activity ˜70 Ci/mmol) was diluted in assay buffer at a concentration of 2 nmol/L. Prepared radioligand (50 μl), along with 50 μl of either the 10% DMSO control, Butaclamol (10-6 mol/l final concentration), or compound of interest, was then incubated (30 min, 37° C.) with 400 μl of the prepared membrane solution. Membrane-bound activity was filtered through a Packard Filtermate harvester onto GF/B Unifilterplates and washed with ice-cold Tris-HCl buffer (50 mM; pH 7.7; 6×0.5 ml). Filters were allowed to dry before adding scintillation fluid and counting in a Topcount scintillation counter. Percentage specific bound and competition binding curves were calculated using S-Plus software (Insightful).

[2] = target: T2, human cloned 5-HT2C receptor, expressed in CHO cells (Homo sapiens, UniProt P28335); experiment: In vitro radioligand binding affinity for 5-HT2C receptor ([3H]mesulergine); conditions: human cloned 5-HT2C receptor in CHO cells, [3H]mesulergine; read-out: h-5HT2C (converted)
T2 construct: expressed in transfected cells; host or cells: CHO cells
T2 sequence (P28335 33-458): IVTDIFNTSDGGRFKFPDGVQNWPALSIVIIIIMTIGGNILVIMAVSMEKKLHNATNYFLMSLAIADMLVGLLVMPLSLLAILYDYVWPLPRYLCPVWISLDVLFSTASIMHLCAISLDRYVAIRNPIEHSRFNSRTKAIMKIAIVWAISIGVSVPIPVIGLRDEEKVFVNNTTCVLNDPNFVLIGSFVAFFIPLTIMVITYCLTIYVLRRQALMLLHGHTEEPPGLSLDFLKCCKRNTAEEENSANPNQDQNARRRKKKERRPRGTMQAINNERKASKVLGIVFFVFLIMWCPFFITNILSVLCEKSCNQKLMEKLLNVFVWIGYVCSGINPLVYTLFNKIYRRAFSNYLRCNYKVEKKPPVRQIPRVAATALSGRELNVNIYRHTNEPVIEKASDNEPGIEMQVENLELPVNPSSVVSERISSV
Protocol: The interaction of the compounds of Formula (I) with 5-HT2A and 5-HT2C receptors was assessed in in vitro radioligand binding experiments. […] During the incubation, the radioligands bind to the receptor. When equilibrium of binding is reached, the receptor bound radioactivity is separated from the non-bound radioactivity, and the receptor bound activity is counted. The interaction of the test compounds with the receptors is assessed in competition binding experiments. Various concentrations of the test compound are added to the incubation mixture containing the tissue preparation and the radioligand. Binding of the radioligand will be inhibited by the test compound in proportion to its binding affinity and its concentration.

[3] = target: T3, human cloned 5-HT2A receptor, expressed in L929 cells (Homo sapiens, UniProt P28223); experiment: In vitro radioligand binding affinity for 5-HT2A receptor ([125I]R91150)
T3 construct: expressed in transfected cells; host or cells: L929 cells
T3 sequence (P28223 whole entry): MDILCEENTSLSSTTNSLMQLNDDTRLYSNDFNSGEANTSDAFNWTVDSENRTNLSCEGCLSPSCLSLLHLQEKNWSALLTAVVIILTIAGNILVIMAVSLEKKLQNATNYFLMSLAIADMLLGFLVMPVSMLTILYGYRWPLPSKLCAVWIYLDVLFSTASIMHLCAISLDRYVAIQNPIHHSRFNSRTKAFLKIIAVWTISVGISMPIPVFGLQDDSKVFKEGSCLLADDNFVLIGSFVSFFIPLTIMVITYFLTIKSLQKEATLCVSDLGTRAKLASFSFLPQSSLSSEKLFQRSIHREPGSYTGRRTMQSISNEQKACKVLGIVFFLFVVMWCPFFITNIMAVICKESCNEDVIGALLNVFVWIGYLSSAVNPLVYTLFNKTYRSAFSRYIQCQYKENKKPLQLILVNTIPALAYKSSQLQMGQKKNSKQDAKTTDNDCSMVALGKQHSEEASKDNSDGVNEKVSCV
Protocol: The interaction of the compounds of Formula (I) with 5-HT2A and 5-HT2C receptors was assessed in in vitro radioligand binding experiments. In general, a low concentration of a radioligand with a high binding affinity for the receptor is incubated with a sample of a tissue preparation enriched in a particular receptor (1 to 5 mg tissue) in a buffered medium (0.2 to 5 ml). During the incubation, the radioligands bind to the receptor. When equilibrium of binding is reached, the receptor bound radioactivity is separated from the non-bound radioactivity, and the receptor bound activity is counted. The interaction of the test compounds with the receptors is assessed in competition binding experiments. Various concentrations of the test compound are added to the incubation mixture containing the tissue preparation and the radioligand. Binding of the radioligand will be inhibited by the test compound in proportion to its binding affinity and its concentration. The affinities of the compounds for the 5-HT2 receptors were measured by means of radioligand binding studies conducted with: (a) human cloned 5-HT2A receptor, expressed in L929 cells using [^125I]R91150 as radioligand and (b) human cloned 5-HT2C receptor, expressed in CHO cells using [^3H]mesulergine as radioligand.

NET = target: T4, NET (Rattus norvegicus, UniProt Q9WTR4); experiment: In vitro determination of NET reuptake inhibition ([3H]Nixosetine binding, rat brain cortex membranes)
T4 construct: Cortex from rat brain was collected and homogenised; from tissue; host or cells: rat brain cortex membranes
T4 sequence (Q9WTR4 1-597): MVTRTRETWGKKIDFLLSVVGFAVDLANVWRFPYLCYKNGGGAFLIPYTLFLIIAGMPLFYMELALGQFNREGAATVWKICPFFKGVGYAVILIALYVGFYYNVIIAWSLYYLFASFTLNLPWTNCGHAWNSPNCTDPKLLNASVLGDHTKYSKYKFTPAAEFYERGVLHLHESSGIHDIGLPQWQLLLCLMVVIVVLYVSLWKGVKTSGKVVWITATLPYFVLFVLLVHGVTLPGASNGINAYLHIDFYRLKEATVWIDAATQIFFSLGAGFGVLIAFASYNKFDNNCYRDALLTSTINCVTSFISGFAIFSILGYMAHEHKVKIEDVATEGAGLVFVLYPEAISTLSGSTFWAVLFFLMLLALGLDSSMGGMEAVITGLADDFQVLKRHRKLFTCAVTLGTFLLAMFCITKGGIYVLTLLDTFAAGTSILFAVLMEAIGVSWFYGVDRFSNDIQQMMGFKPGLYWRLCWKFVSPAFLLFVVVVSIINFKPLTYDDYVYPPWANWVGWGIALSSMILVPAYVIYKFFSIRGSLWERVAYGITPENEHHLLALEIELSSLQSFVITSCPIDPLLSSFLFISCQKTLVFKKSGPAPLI
Protocol: Cortex from rat brain was collected and homogenised using an Ultra-Turrax T25 and a Dual homogeniser in ice-cold homogenising buffer containing Tris, NaCl and KCl (50 mM, 120 mM and 5 mM, respectively, pH 7.4) prior to dilution to an appropriate protein concentration optimised for specific and non-specific binding. […] Membrane-bound activity was detected by filtration through a Packard Filtermate harvester onto GF/B Unifilterplates, washed with ice-cold Tris-HCl buffer, containing NaCl and KCl (50 mM, 120 mM and 4 mM; pH 7.4; 6×0.5 ml). Filters were allowed to dry for 24 h before adding scintillation fluid. Scintillation fluid was allowed to saturate filters for 24 h before counting in a Topcount scintillation counter. Percentage specific bound and competition binding curves were calculated using S-Plus software (Insightful).

[4] = human cloned 5-HT2A receptor in L929 cells, [125I]R91150, read-out: h-5HT2A (converted)

In the case of CNC1CO[C@H]2c3cc(F)ccc3Cc3ccccc3[C@H]2C1 (stereo in doubt) [compound 33, (3R,4aR,13bR)-12-fluoro-N-methyl-2,3,4,4a,9,13b-hexahydrodibenzo[3,4:6,7]cyclo-hepta[1,2-b]pyran-3-amine], the melting point is reported as 55 to 56 °C.
For Fc1ccc2c(c1)[C@@H]1[C@H](C[C@@H]3CNC(=S)N31)c1ccccc1C2 [compound 8, (4aS,13bR,14aR)-6-fluoro-1,4a,9,13b,14,14a-hexahydrodibenzo[3 ′,4′:6′,7′]cyclohepta-[1′,2′:4,5]pyrrolo[1,2-c]imidazole-3(2H)-thione], the IC50 [1] was greater than 10000 nM, the IC50 [2] was 251 nM and the IC50 [3] was 85.1 nM. For the same compound, the melting point was 150 to 151 °C and the “NET Reuptake Inhibition” value (NET) was 5.66.
O[C@H]1CO[C@H]2c3cc(F)ccc3Cc3ccccc3[C@H]2C1 [compound 29, (3R,4aR,13bR)-12-fluoro-2,3,4,4a,9,13b-hexahydrodibenzo[3,4:6,7]cyclohepta[1,2-b]-pyran-3-ol] gave a melting point of 59 to 61 °C.
Compound N[C@@H]1CO[C@H]2c3cc(F)ccc3Cc3ccccc3[C@H]2C1 [compound 30, (3S,4aR,13bR)-12-fluoro-2,3,4,4a,9,13b-hexahydrodibenzo[3,4:6,7]cyclohepta[1,2-b]pyran-3-amine] has an IC50 [1] greater than 1000 nM, an IC50 [2] of 145 nM and an IC50 [3, 4] of 269 nM. For the same compound, the melting point was 74 to 76 °C and the IC50 (NET) was 302 nM.
O=C1CO[C@H]2c3cc(F)ccc3Cc3ccccc3[C@H]2C1 [compound 31, (4aR,13bR)-12-fluoro-4,4a,9,13b-tetrahydrodibenzo[3,4:6,7]cyclohepta[1,2-b]pyran-3(2H)-one] gave a melting point of 146 to 148 °C.
For CN(C)[C@@H]1CO[C@H]2c3cc(F)ccc3Cc3ccccc3[C@H]2C1 [compound 32, (3S,4aR,13bR)-12-fluoro-N,N-dimethyl-2,3,4,4a,9,13b-hexahydrodibenzo[3,4:6,7]-cyclohepta[1,2-b]pyran-3-amine], the IC50 [1] was greater than 1000 nM, the IC50 [2] was 132 nM and the IC50 [3, 4] was 676 nM. It also gave a melting point of 58 to 59 °C and an IC50 (NET) of 19.5 nM.
CN(C)C[C@H]1C[C@@H]2c3ccccc3Cc3ccc(F)cc3[C@H]2N1CCO [compound 39, 2-((2R,3aR,12bS)-2-[(dimethylamino)methyl]-11-fluoro-3,3a,8,12b-tetrahydrodibenzo-[3,4:6,7]cyclohepta[1,2-b]pyrrol-1(2H)-yl)ethanol] showed an IC50 [1] greater than 1000 nM, an IC50 [2] of 46.8 nM and an IC50 [3, 4] of 87.1 nM. The melting point was 88 to 90 °C and the IC50 (NET) was 126 nM.
